Reference: ChEMBL document CHEMBL5512659, “Structure optimizing of flavonoids against both MRSA and VRE” (Eur J Med Chem, 2024)
Values after ≈ are worked out from the molar mass of the structure shown. Active and inactive are the calls of the source. The rule behind the calls is not given here.

Key:
Cell membrane [1] = test: Disruption of membrane permeability in multidrug resistant Enterococcus faecalis ATCC 51299 assessed as nucleic acid leakage at 2 to 4 times MIC
Enterococcus faecalis [2] = test: Bactericidal activity against multidrug resistant Enterococcus faecalis ATCC 51299 assessed as inhibition of bacterial growth by measuring ratio of MBC to MIC; assay type: functional
Staphylococcus aureus [3] = test: Antibiofilm activity in methicillin resistant Staphylococcus aureus clinical isolate 003 assessed as inhibition of biofilm formation at 4 times MIC by crystal violet staining based analysis relative to control; assay type: functional
Staphylococcus aureus [4] = test: Antibiofilm activity in methicillin resistant Staphylococcus aureus clinical isolate 003 assessed as reduction in biofilm density at 0.5 to 4 times MIC measured after 24 hrs by inverted fluorescence microscopic analysis; assay type: functional, organism-based
Enterococcus faecalis [5] = test: Antibacterial activity against multidrug resistant Enterococcus faecalis ATCC 51299 in presence of peptidoglycan; assay type: functional, organism-based
Cell membrane [6] = test: Disruption of membrane permeability in methicillin resistant Staphylococcus aureus clinical isolate 003 assessed as increase in ROS accumulation at 2 to 4 times MIC measured after 1 hr
Cell membrane [7] = test: Induction of membrane damage in multidrug resistant Enterococcus faecalis ATCC 51299 assessed as deformation of bacterial surface at 2 to 4 times MIC by SEM analysis; assay type: cell membranes
Staphylococcus aureus [8] = test: Antibacterial activity against methicillin resistant Staphylococcus aureus clinical isolate 003 in presence of peptidoglycan; assay type: functional, organism-based
Cell membrane [9] = test: Induction of cell membrane damage in multidrug resistant Enterococcus faecalis ATCC 51299 assessed as increase in red fluorescence at 2 to 4 times MIC by PI staining based analysis; assay type: cell membranes
Cell membrane [10] = test: Induction of membrane depolarization in multidrug resistant Enterococcus faecalis ATCC 51299 assessed as increase in fluorescence intensity at 2 to 4 times MIC by DiSC3(5) dye based analysis
Staphylococcus aureus [11] = test: Bactericidal activity against methicillin-resistant Staphylococcus aureus clinical isolate 003 assessed as inhibition of bacterial growth by measuring ratio of MBC to MIC; assay type: functional
Enterococcus faecalis [12] = test: Antibiofilm activity in multidrug resistant Enterococcus faecalis ATCC 51299 assessed as biofilm clearance rate at 4 times MIC by crystal violet staining based analysis relative to control; assay type: functional
Cell membrane [13] = test: Disruption of membrane permeability in methicillin resistant Staphylococcus aureus clinical isolate 003 assessed as increase in malondialdehyde level
Enterococcus faecalis [14] = test: Antibacterial activity against multidrug resistant Enterococcus faecalis ATCC 51299; assay type: functional
Staphylococcus aureus [15] = test: Antibacterial activity against methicillin-resistant Staphylococcus aureus clinical isolate 003 at 2 to 4 times MIC measured after 8 to 12 hrs by time-kill assay; assay type: functional, organism-based; settings: time 8-12 hrs
Cell membrane [16] = test: Disruption of membrane permeability in methicillin resistant Staphylococcus aureus clinical isolate 003 assessed as nucleic acid leakage at 2 to 4 times MIC
Cell membrane [17] = test: Disruption of membrane permeability in methicillin resistant Staphylococcus aureus clinical isolate 003 assessed as protein leakage at 2 to 4 times MIC
Staphylococcus aureus [18] = test: Antibiofilm activity in methicillin resistant Staphylococcus aureus clinical isolate 003 assessed as destruction of biofilm integrity at 0.5 to 4 times MIC measured after 24 hrs by inverted fluorescence microscopic analysis; assay type: functional, organism-based
Enterococcus faecalis [19] = test: Antibacterial activity against Enterococcus faecalis clinical isolate 7; assay type: functional
Cell membrane [20] = test: Induction of membrane damage in multidrug resistant Enterococcus faecalis ATCC 51299 assessed as rupture of bacterial surface at 2 to 4 times MIC by SEM analysis; assay type: cell membranes
Enterococcus faecalis [21] = test: Antibacterial activity against multidrug resistant Enterococcus faecalis ATCC 51299 in presence of cardiolipin; assay type: functional, organism-based
Staphylococcus aureus [22] = test: Antibacterial activity against Staphylococcus aureus clinical isolate 31; assay type: functional
Cell membrane [23] = test: Disruption of membrane permeability in multidrug resistant Enterococcus faecalis ATCC 51299 assessed as increase in ROS accumulation at 2 to 4 times MIC measured after 1 hr
Cell membrane [24] = test: Induction of cell membrane damage in methicillin resistant Staphylococcus aureus clinical isolate 003 assessed as increase in green fluorescence at 2 to 4 times MIC by SYTOX Green dye based analysis; assay type: cell membranes
Cell membrane [25] = test: Induction of membrane depolarization in methicillin resistant Staphylococcus aureus clinical isolate 003 assessed as increase in fluorescence intensity at 2 to 4 times MIC by DiSC3(5) dye based analysis
Cell membrane [26] = test: Disruption of membrane permeability in methicillin resistant Staphylococcus aureus clinical isolate 003 assessed as increase in fluorescence intensity at 4 to 8 times MIC by PI staining based analysis
Enterococcus faecalis [27] = test: Antibacterial activity in multidrug resistant Enterococcus faecalis ATCC 51299 at sub-MIC measured after 20 passages; assay type: functional, organism-based
Enterococcus faecalis [28] = test: Antibacterial activity against Enterococcus faecalis clinical isolate 13; assay type: functional
Staphylococcus aureus [29] = test: Antibacterial activity against methicillin resistant Staphylococcus aureus clinical isolate 003 in presence of phosphatidylglycerol; assay type: functional, organism-based
Enterococcus faecalis [30] = test: Antibiofilm activity in multidrug resistant Enterococcus faecalis ATCC 51299 assessed as reduction in biofilm density at 0.5 to 4 times MIC measured after 24 hrs by inverted fluorescence microscopic analysis; assay type: functional, organism-based
Cell membrane [31] = test: Disruption of membrane permeability in multidrug resistant Enterococcus faecalis ATCC 51299 assessed as increase in malondialdehyde level
Cell membrane [32] = test: Disruption of membrane permeability in multidrug resistant Enterococcus faecalis ATCC 51299 assessed as protein leakage at 2 to 4 times MIC; assay type: cell membranes
Enterococcus faecalis [33] = test: Antibacterial activity against multidrug resistant Enterococcus faecalis ATCC 51299 in presence of phosphatidylethanolamine; assay type: functional, organism-based
Staphylococcus aureus [34] = test: Antibacterial activity in methicillin resistant Staphylococcus aureus clinical isolate 003 at sub-MIC measured after 20 passages; assay type: functional, organism-based
Staphylococcus aureus [35] = test: Antibacterial activity against methicillin resistant Staphylococcus aureus clinical isolate 003 in presence of cardiolipin; assay type: functional, organism-based
Enterococcus faecalis [36] = test: Antibiofilm activity in multidrug resistant Enterococcus faecalis ATCC 51299 assessed as inhibition of biofilm formation at 4 times MIC by crystal violet staining based analysis relative to control; assay type: functional
Cell membrane [37] = test: Induction of cell membrane damage in methicillin resistant Staphylococcus aureus clinical isolate 003 assessed as increase in red fluorescence at 2 to 4 times MIC by PI staining based analysis; assay type: cell membranes
Staphylococcus aureus [38] = test: Antibiofilm activity in methicillin resistant Staphylococcus aureus clinical isolate 003 assessed as biofilm clearance at 0.5 to 4 times MIC by crystal violet staining based analysis; assay type: functional, organism-based
Enterococcus faecalis [39] = test: Antibacterial activity against multidrug resistant Enterococcus faecalis ATCC 51299 at 2 to 4 times MIC measured after 8 to 12 hrs by time-kill assay; assay type: functional, organism-based; settings: time 8-12 hrs
Cell membrane [40] = test: Disruption of membrane permeability in multidrug resistant Enterococcus faecalis ATCC 51299 assessed as increase in fluorescence intensity at 4 to 8 times MIC by PI staining based analysis
Staphylococcus aureus [41] = test: Antibacterial activity against methicillin resistant Staphylococcus aureus clinical isolate 003; assay type: functional
Staphylococcus aureus [42] = test: Antibacterial activity against methicillin resistant Staphylococcus aureus clinical isolate 031; assay type: functional
Staphylococcus aureus [43] = test: Antibiofilm activity in methicillin resistant Staphylococcus aureus clinical isolate 003 assessed as biofilm clearance rate at 4 times MIC by crystal violet staining based analysis relative to control; assay type: functional
Staphylococcus aureus [44] = test: Antibacterial activity against methicillin resistant Staphylococcus aureus clinical isolate 011; assay type: functional

CCCCCCc1c(-c2ccc(OCCCCN(C)C)cc2OCCCCN(C)C)oc2cc(OC)cc(O)c2c1=O
Activity (Cell membrane [1]): Active
Ratio (Enterococcus faecalis [2]): <4
inhibition (INH) (Staphylococcus aureus [3]): >90%
Activity (Staphylococcus aureus [4]): Dose-Dependent Effect
Activity (Enterococcus faecalis [5]): Active
Activity (Cell membrane [6]): Active
Activity (Cell membrane [7]): Active
Activity (Staphylococcus aureus [8]): Active
Activity (Cell membrane [9]): Active
Activity (Cell membrane [10]): Dose-Dependent Effect
Ratio (Staphylococcus aureus [11]): <4
Activity (Enterococcus faecalis [12]): ~80%
Activity (Cell membrane [13]): Active
MIC (Enterococcus faecalis [14]): 1 µg/mL (≈ 1.72 µM)
Activity (Staphylococcus aureus [15]): Active
Activity (Cell membrane [16]): Active
Activity (Cell membrane [17]): Active
Activity (Staphylococcus aureus [18]): Dose-Dependent Effect
MIC (Enterococcus faecalis [19]): 1 µg/mL (≈ 1.72 µM)
Activity (Cell membrane [20]): Active
Activity (Enterococcus faecalis [21]): inactive
MIC (Staphylococcus aureus [22]): 1 µg/mL (≈ 1.72 µM)
Activity (Cell membrane [23]): Active
Activity (Cell membrane [24]): Active
Activity (Cell membrane [25]): Dose-Dependent Effect
Activity (Cell membrane [26]): Active
Activity (Enterococcus faecalis [27]): Active
MIC (Enterococcus faecalis [28]): 1 µg/mL (≈ 1.72 µM)
Activity (Staphylococcus aureus [29]): inactive
Activity (Enterococcus faecalis [30]): Dose-Dependent Effect
Activity (Cell membrane [31]): Active
Activity (Cell membrane [32]): Active
Activity (Enterococcus faecalis [33]): inactive
Activity (Staphylococcus aureus [34]): Active
Activity (Staphylococcus aureus [35]): inactive
inhibition (INH) (Enterococcus faecalis [36]): >90%
Activity (Cell membrane [37]): Active
Activity (Staphylococcus aureus [38]): Dose-Dependent Effect
Activity (Enterococcus faecalis [39]): Active
Activity (Cell membrane [40]): Active
MIC (Staphylococcus aureus [41]): 0.5 µg/mL (≈ 0.858 µM)
MIC (Staphylococcus aureus [42]): 1 µg/mL (≈ 1.72 µM)
Activity (Staphylococcus aureus [43]): ~80%
MIC (Staphylococcus aureus [44]): 1 µg/mL (≈ 1.72 µM)

CCCCCCc1c(-c2ccc(OCCCCNCCCN)cc2OCCCCNCCCN)oc2cc(OC)cc(O)c2c1=O
Activity (Cell membrane [1]): Active
Ratio (Enterococcus faecalis [2]): <4
inhibition (INH) (Staphylococcus aureus [3]): >90%
Activity (Staphylococcus aureus [4]): Dose-Dependent Effect
Activity (Enterococcus faecalis [5]): Active
Activity (Cell membrane [6]): Active
Activity (Cell membrane [7]): Active
Activity (Staphylococcus aureus [8]): Active
Activity (Cell membrane [9]): Active
Activity (Cell membrane [10]): Dose-Dependent Effect
Ratio (Staphylococcus aureus [11]): <4
Activity (Enterococcus faecalis [12]): ~80%
Activity (Cell membrane [13]): Active
MIC (Enterococcus faecalis [14]): 1 µg/mL (≈ 1.56 µM)
Activity (Staphylococcus aureus [15]): Active
Activity (Cell membrane [16]): Active
Activity (Cell membrane [17]): Active
Activity (Staphylococcus aureus [18]): Dose-Dependent Effect
MIC (Enterococcus faecalis [19]): 1 µg/mL (≈ 1.56 µM)
Activity (Cell membrane [20]): Active
Activity (Enterococcus faecalis [21]): inactive
MIC (Staphylococcus aureus [22]): 0.25 µg/mL (≈ 0.39 µM)
Activity (Cell membrane [23]): Active
Activity (Cell membrane [24]): Active
Activity (Cell membrane [25]): Dose-Dependent Effect
Activity (Cell membrane [26]): Active
Activity (Enterococcus faecalis [27]): Active
MIC (Enterococcus faecalis [28]): 0.5 µg/mL (≈ 0.78 µM)
Activity (Staphylococcus aureus [29]): inactive
Activity (Enterococcus faecalis [30]): Dose-Dependent Effect
Activity (Cell membrane [31]): Active
Activity (Cell membrane [32]): Active
Activity (Enterococcus faecalis [33]): inactive
Activity (Staphylococcus aureus [34]): Active
Activity (Staphylococcus aureus [35]): inactive
inhibition (INH) (Enterococcus faecalis [36]): >90%
Activity (Cell membrane [37]): Active
Activity (Staphylococcus aureus [38]): Dose-Dependent Effect
Activity (Enterococcus faecalis [39]): Active
Activity (Cell membrane [40]): Active
MIC (Staphylococcus aureus [41]): 0.25 µg/mL (≈ 0.39 µM)
MIC (Staphylococcus aureus [42]): 0.25 µg/mL (≈ 0.39 µM)
Activity (Staphylococcus aureus [43]): ~80%
MIC (Staphylococcus aureus [44]): 0.25 µg/mL (≈ 0.39 µM)
